Test results taken from patent publication US20210024542A1 (Torcept Therapeutics, Inc., priority 2018, published 2021).
Where two headings read alike, the source gives them in different places.

Legend:
RL95-2 = assay: OncoPanel cell proliferation assay, RL95-2; type: cell-based, human; conditions: for Relative cell count (%) Mean: RL95-2
Experimental: (§1) Cells were grown in RPMI 1640, 10% FBS, 2 mM L-alanyl-L-glutamine, 1 mM Na pyruvate, or a special medium. Cells were seeded into 384-well plates and incubated in a humidified atmosphere of 5% CO2 at 37° C. Compounds were added the day following cell seeding. At the same time, a time zero untreated cell plate was generated. After a 3-day incubation period, cells were fixed and stained to allow fluorescence imaging of nuclei. Compounds (1 mM stock solutions) were serially diluted in half-log steps from the highest test concentration ([…]), and assayed over 10 concentrations with a maximum assay concentration of 0.1% DMSO. Automated fluorescence microscopy was carried out using a Molecular Devices ImageXpress Micro XL high-content imager, and images were collected with a 4× objective. 16-bit TIFF images were acquired and analyzed with MetaXpress 5.1.0.41 software.
(§2) Cell proliferation was measured by the fluorescence intensity of an incorporated nuclear dye. The output is referred to as the relative cell count, where the measured nuclear intensity is transformed to percent of control (POC) using the following formula: […]
(§3) Cellular response parameters were calculated using nonlinear regression to a sigmoidal single-site dose response model:
(§4) Where y is a response measured at concentration x, A and B are the lower and upper limits of the response, C is the concentration at the response midpoint (EC50), and D is the Hill Slope (Ref. 1).
(§5) EC50 is the test compound concentration at the curve inflection point or half the effective response (parameter C of the fitted curve solution). GI50 is the concentration needed to reduce the observed growth by half (midway between the curve maximum and the time zero value). “Cell Count Activity Area” is an estimate of the integrated area above the curve (Barretina, et al. The Cancer Cell Line Encyclopedia enables predictive modelling of anticancer drug sensitivity. Nature 483: 603-607). […] In rare instances, values <0 or >10 may be observed. […] Curve-fitting, calculations, and report generation was performed using a custom data reduction engine and MathIQ based software (AIM).

786-O = assay: OncoPanel cell proliferation assay, 786-O; type: cell-based, human; conditions: for Relative cell count (%) Mean: 786-0
Experimental: as §1, §2, §3, §4, §5

Hs 729 = assay: OncoPanel cell proliferation assay, Hs 729; type: cell-based, human; conditions: for Relative cell count (%) Mean: Hs 729
Experimental: as §1, §2, §3, §4, §5

SK-MEL-28 = assay: OncoPanel cell proliferation assay, SK-MEL-28; type: cell-based, human; conditions: for Relative cell count (%) Mean: SK-MEL-28
Experimental: as §1, §2, §3, §4, §5

DMS114 = assay: OncoPanel cell proliferation assay, DMS114; type: cell-based, human; conditions: for Relative cell count (%) Mean: DMS114
Experimental: as §1, with “Cells” for “Cells were grown in RPMI 1640, 10% FBS, 2 mM L-alanyl-L-glutamine, 1 mM Na pyruvate, or a special medium. Cells”
as §2, §3, §4
GI50 is the concentration needed to reduce the observed growth by half (midway between the curve maximum and the time zero value). […] In rare instances, values <0 or >10 may be observed. […] Curve-fitting, calculations, and report generation was performed using a custom data reduction engine and MathIQ based software (AIM).

SK-UT-1 = assay: OncoPanel cell proliferation assay, SK-UT-1; conditions: for Relative cell count (%) Mean: SK-UT-1
Experimental: Cells were seeded into 384-well plates and incubated in a humidified atmosphere of 5% CO2 at 37° C. Compounds were added the day following cell seeding. At the same time, a time zero untreated cell plate was generated. After a 3-day incubation period, cells were fixed and stained to allow fluorescence imaging of nuclei. Compounds (1 mM stock solutions) were serially diluted in half-log steps from the highest test concentration (1 micromol), and assayed over 10 concentrations with a maximum assay concentration of 0.1% DMSO. Automated fluorescence microscopy was carried out using a Molecular Devices ImageXpress Micro XL high-content imager, and images were collected with a 4× objective. 16-bit TIFF images were acquired and analyzed with MetaXpress 5.1.0.41 software.

`CO[C@H]1C[C@@H]2CC[C@@H](C)[C@@](O)(O2)C(=O)C(=O)N2CCCC[C@H]2C(=O)O[C@H]([C@H](C)C[C@@H]2C[C@@H]3C[C@H]2C[C@H]3O)CC(=O)[C@H](C)/C=C(\C)[C@@H](O)[C@@H](OC)C(=O)[C@H](C)C[C@H](C)/C=C/C=C/C=C/1C` [Formula I, 37R-hydroxynorbornylrapamycin] was tested, and the EC50 (RL95-2; Homo sapiens, 72 h, RL95-2, 3-day incubation, read-out: Cell Count EC50) was 0.15 nM, the GI50 (RL95-2; Homo sapiens, 72 h, RL95-2, 3-day incubation, read-out: Cell Count GI50) was 0.22 nM and the IC50 (RL95-2; Homo sapiens, 72 h, RL95-2, 3-day incubation, read-out: Cell Count IC50) was 10.9 nM. For the same compound, the “Cell Count Activity Area” value (RL95-2; RL95-2, scale 0-10) was 4.12, the “Relative cell count (%) Mean” value (RL95-2; 1.00E+00 microM) was 47.2% and the “Relative cell count (%) Mean” value (RL95-2; 1.00E−01 microM) was 50.6%. For the same compound, the “Relative cell count (%) Mean” value (RL95-2; 1.00E−02 microM) was 52.2%, the “Relative cell count (%) Mean” value (RL95-2; 1.00E−03 microM) was 59.5% and the “Relative cell count (%) Mean” value (RL95-2; 1.01E−04 microM) was 78.3%. For the same compound, the “Relative cell count (%) Mean” value (RL95-2; 3.16E−01 microM) was 45.6%, the “Relative cell count (%) Mean” value (RL95-2; 3.17E−02 microM) was 48.5% and the “Relative cell count (%) Mean” value (RL95-2; 3.17E−03 microM) was 52.9%. The “Relative cell count (%) Mean” value (RL95-2; 3.18E−04 microM) was 64.0%, the “Relative cell count (%) Mean” value (RL95-2; 3.18E−05 microM) was 89.3% and the “Relative cell count (%) Mean” value (786-O; 1.00E+00 microM) was 37.4%. The “Relative cell count (%) Mean” value (786-O; 1.00E−01 microM) was 44.8%, the “Relative cell count (%) Mean” value (786-O; 1.00E−02 microM) was 52.1% and the “Relative cell count (%) Mean” value (786-O; 1.00E−03 microM) was 61.1%. The “Relative cell count (%) Mean” value (786-O; 1.01E−04 microM) was 88.5%, the “Relative cell count (%) Mean” value (786-O; 3.16E−01 microM) was 43.9% and the “Relative cell count (%) Mean” value (786-O; 3.17E−02 microM) was 46.5%. The “Relative cell count (%) Mean” value (786-O; 3.17E−03 microM) was 60.0%, the “Relative cell count (%) Mean” value (786-O; 3.18E−04 microM) was 77.4% and the “Relative cell count (%) Mean” value (786-O; 3.18E−05 microM) was 100.6%. The “Cell Count Activity Area” value (786-O; 786-O, scale 0-10) was 4.43, the EC50 (786-O; Homo sapiens, 786-0, 72 h, 786-O, 3-day incubation, read-out: Cell Count EC50) was 0.395 nM and the GI50 (786-O; Homo sapiens, 786-0, 72 h, 786-O, 3-day incubation, read-out: Cell Count GI50) was 1.91 nM. It also gave an IC50 (786-O; Homo sapiens, 786-0, 72 h, 786-O, 3-day incubation, read-out: Cell Count IC50) of 4.07 nM, an EC50 (Hs 729; Homo sapiens, 72 h, Hs 729, 3-day incubation, read-out: Cell Count EC50) of 14.1 nM and a GI50 (Hs 729; Homo sapiens, 72 h, Hs 729, 3-day incubation, read-out: Cell Count GI50) of 17.3 nM. The IC50 (Hs 729; Homo sapiens, 72 h, Hs 729, 3-day incubation, read-out: Cell Count IC50) was over 1000 nM, the “Cell Count Activity Area” value (Hs 729; Hs 729, scale 0-10) was 1.80 and the “Relative cell count (%) Mean” value (Hs 729; 1.00E+00 microM) was 65.5%. The “Relative cell count (%) Mean” value (Hs 729; 1.00E−01 microM) was 69.6%, the “Relative cell count (%) Mean” value (Hs 729; 1.00E−02 microM) was 79.6% and the “Relative cell count (%) Mean” value (Hs 729; 1.00E−03 microM) was 87.3%. For the same compound, the “Relative cell count (%) Mean” value (Hs 729; 1.01E−04 microM) was 95.7%, the “Relative cell count (%) Mean” value (Hs 729; 3.16E−01 microM) was 63.1% and the “Relative cell count (%) Mean” value (Hs 729; 3.17E−02 microM) was 76.9%. The “Relative cell count (%) Mean” value (Hs 729; 3.17E−03 microM) was 79.1%, the “Relative cell count (%) Mean” value (Hs 729; 3.18E−04 microM) was 87.7% and the “Relative cell count (%) Mean” value (Hs 729; 3.18E−05 microM) was 91.5%. It also gave an EC50 (SK-MEL-28; Homo sapiens, 72 h, SK-MEL-28, 3-day incubation, read-out: Cell Count EC50) of 0.194 nM, a GI50 (SK-MEL-28; Homo sapiens, 72 h, SK-MEL-28, 3-day incubation, read-out: Cell Count GI50) of over 1000 nM and an IC50 (SK-MEL-28; Homo sapiens, 72 h, SK-MEL-28, 3-day incubation, read-out: Cell Count IC50) of over 1000 nM. For the same compound, the EC50 (SK-MEL-28; Homo sapiens, Table 4 summary, SK-MEL-28, Melanoma, read-out: EC50) was 0.19 nM, the “Cell Count Activity Area” value (SK-MEL-28; SK-MEL-28, scale 0-10) was 1.87 and the “Relative cell count (%) Mean” value (SK-MEL-28; 1.00E−01 microM) was 65.6%. For the same compound, the “Relative cell count (%) Mean” value (SK-MEL-28; 1.00E−02 microM) was 71.4%, the “Relative cell count (%) Mean” value (SK-MEL-28; 1.00E−03 microM) was 75.0% and the “Relative cell count (%) Mean” value (SK-MEL-28; 1.01E−04 microM) was 88.2%. The “Relative cell count (%) Mean” value (SK-MEL-28; 3.17E−02 microM) was 68.9%, the “Relative cell count (%) Mean” value (SK-MEL-28; 3.17E−03 microM) was 70.8% and the “Relative cell count (%) Mean” value (SK-MEL-28; 3.18E−04 microM) was 79.6%. The “Relative cell count (%) Mean” value (SK-MEL-28; 3.18E−05 microM) was 93.8%, the “Cell Count Activity Area” value (DMS114; DMS114, scale 0-10) was 4.35 and the “Relative cell count (%) Mean” value (DMS114; 1.00E+00 microM) was 39.3%. For the same compound, the “Relative cell count (%) Mean” value (DMS114; 1.00E−01 microM) was 44.1%, the “Relative cell count (%) Mean” value (DMS114; 1.00E−02 microM) was 50.7% and the “Relative cell count (%) Mean” value (DMS114; 1.00E−03 microM) was 57.7%. The “Relative cell count (%) Mean” value (DMS114; 1.01E−04 microM) was 77.8%, the “Relative cell count (%) Mean” value (DMS114; 3.16E−01 microM) was 41.4% and the “Relative cell count (%) Mean” value (DMS114; 3.17E−02 microM) was 44.7%. For the same compound, the “Relative cell count (%) Mean” value (DMS114; 3.17E−03 microM) was 51.7%, the “Relative cell count (%) Mean” value (DMS114; 3.18E−04 microM) was 67.2% and the “Relative cell count (%) Mean” value (DMS114; 3.18E−05 microM) was 90.1%. For the same compound, the EC50 (DMS114; Homo sapiens, DMS-114, 72 h, DMS114, 3-day incubation, read-out: Cell Count EC50) was 0.251 nM, the GI50 (DMS114; Homo sapiens, DMS-114, 72 h, DMS114, 3-day incubation, read-out: Cell Count GI50) was 0.0822 nM and the IC50 (DMS114; Homo sapiens, DMS-114, 72 h, DMS114, 3-day incubation, read-out: Cell Count IC50) was 4.4 nM. For the same compound, the EC50 (SK-UT-1; Homo sapiens, SK-UT-1, 72 h, read-out: Cell Count EC50) was 0.284 nM, the GI50 (SK-UT-1; Homo sapiens, SK-UT-1, 72 h, read-out: Cell Count GI50) was 2.01 nM and the IC50 (SK-UT-1; Homo sapiens, SK-UT-1, 72 h, read-out: Cell Count IC50) was 11.7 nM. The “Cell Count Activity Area” value (SK-UT-1; SK-UT-1, scale 0-10) was 3.95, the “Relative cell count (%) Mean” value (SK-UT-1; 1.00E+00 microM) was 50.0% and the “Relative cell count (%) Mean” value (SK-UT-1; 1.00E−01 microM) was 57.6%. For the same compound, the “Relative cell count (%) Mean” value (SK-UT-1; 1.00E−02 microM) was 52.2%, the “Relative cell count (%) Mean” value (SK-UT-1; 1.00E−03 microM) was 72.8% and the “Relative cell count (%) Mean” value (SK-UT-1; 1.01E−04 microM) was 94.8%. The “Relative cell count (%) Mean” value (SK-UT-1; 3.16E−01 microM) was 48.7%, the “Relative cell count (%) Mean” value (SK-UT-1; 3.17E−02 microM) was 53.1% and the “Relative cell count (%) Mean” value (SK-UT-1; 3.17E−03 microM) was 57.1%. For the same compound, the “Relative cell count (%) Mean” value (SK-UT-1; 3.18E−04 microM) was 72.6% and the “Relative cell count (%) Mean” value (SK-UT-1; 3.18E−05 microM) was 98.4%.
